Data reported in US20030224942A1, “Alkylamino-1,3,5-triazines, processes for their preparation and their use as herbicides and plant growth regulators” (priority 2001, published 2003).

How the values were obtained:
[1] = system: Chenopodium spp., Papaver spp., Polygonum spp., Veronica spp. or Viola spp.; assay: Post-emergence effect on weeds (greenhouse pot test, visual scoring); assay type: in vivo, monocotyledonous and dicotyledonous weeds; details: treated at three-leaf stage; visual scoring after about 3 to 4 weeks; application rate of 0.5 kg and less of active substance per hectare
[2] = system: Cyperus spp., Echinochloa spp., Digitaria spp., Sagitaria spp. and Scirpus spp.; assay: Action on harmful plants in rice (paddy rice conditions, visual scoring); assay type: in vivo, typical rice weeds (gramineous and broad-leaved); details: applied into the dammed water, visual scoring about three weeks after application
Summary of the method: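 Rice and typical gramineous and broad-leaved rice weeds grown in closed pots in greenhouse under paddy conditions (2-3 cm water) to three-leaf stage (Echinochloa crus-galli 1.5-leaf), then treated with compounds. Plants kept under optimum greenhouse conditions throughout; effect scored visually.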

Structure (SMILES)	herbicidal activity post-emergence against harmful plants [1]	herbicidal activity against harmful plants which are typical for rice crops [2]
CCC(F)c1nc(N)nc(NCc2cc(F)c(C(F)=C(F)F)c(F)c2)n1 (stereo not drawn) [Product P26.49]	very good herbicidal activity	very good herbicidal activity
C#Cc1cc(CNc2nc(N)nc(C(F)CC)n2)ccc1F (stereo not drawn) [Product P26.309]	very good herbicidal activity	very good herbicidal activity
C#Cc1c(F)cc(CNc2nc(N)nc(C(F)CC)n2)cc1F (stereo not drawn) [Product P26.352]	very good herbicidal activity	very good herbicidal activity
CC#Cc1cc(CNc2nc(N)nc(C(F)CC)n2)ccc1F (stereo not drawn) [Product P26.384]	very good herbicidal activity	very good herbicidal activity
CC#Cc1c(F)cc(CNc2nc(N)nc(C(F)CC)n2)cc1F (stereo not drawn) [Product P26.428]	very good herbicidal activity	very good herbicidal activity
CCC(F)c1nc(N)nc(NCc2ccc(F)c(C3CC3)c2)n1 (stereo not drawn) [Product P26.916]	very good herbicidal activity	very good herbicidal activity
CCC(F)c1nc(N)nc(NCc2cc(F)c(C3CC3)c(F)c2)n1 (stereo not drawn) [Product P26.960]	very good herbicidal activity	very good herbicidal activity
CCC(F)c1nc(N)nc(NCc2cccc(C(F)=C(F)F)c2)n1 (stereo not drawn) [Product P26.1567]	very good herbicidal activity	very good herbicidal activity
CCC(F)c1nc(N)nc(NCc2ccc(C(F)=C(F)F)cc2)n1 (stereo not drawn) [Product P26.1568]	very good herbicidal activity	very good herbicidal activity
C#Cc1cccc(CNc2nc(N)nc(C(F)CC)n2)c1 (stereo not drawn) [Product P26.1579]	very good herbicidal activity	very good herbicidal activity
C#Cc1ccc(CNc2nc(N)nc(C(F)CC)n2)cc1 (stereo not drawn) [Product P26.1580]	very good herbicidal activity	very good herbicidal activity
CC#Cc1cccc(CNc2nc(N)nc(C(F)CC)n2)c1 (stereo not drawn) [Product P26.1582]	very good herbicidal activity	very good herbicidal activity
CC#Cc1ccc(CNc2nc(N)nc(C(F)CC)n2)cc1 (stereo not drawn) [Product P26.1583]	very good herbicidal activity	very good herbicidal activity
CCC(F)c1nc(N)nc(NCc2cccc(C3CC3)c2)n1 (stereo not drawn) [Product P26.1603]	very good herbicidal activity	very good herbicidal activity
CCC(F)c1nc(N)nc(NCc2ccc(C3CC3)cc2)n1 (stereo not drawn) [Product P26.1604]	very good herbicidal activity	very good herbicidal activity
